Measured values as given in BindingDB's records for patent US12017994 (Symberix, 2024).

Target: Beta-glucuronidase (Escherichia coli (strain K12), UniProt P05804)
Assay: Biological Assay
Protocol: Successful drug candidate compounds were subjected to numerous biochemical and cellular assays. Purified bacterial β-glucuronidases were challenged with compounds to determine inhibition properties in a standard, robust activity assay, utilizing p-nitrophenyl glucuronide (PNPG) as the enzymatic substrate. Reactions (n=3/inhibitor concentration) were conducted in a 96-well assay, consisting of PNPG substrate (12 concentrations between 25 μM and 5 mM), inhibitor solution (8 concentrations between 0.1 nM and 100 μM), and 5 nM enzyme. […] Purified bovine liver and human β-glucuronidase were dissolved in a reaction mixture containing 1 μM enzyme and 1 mM PNPG as substrate.

Sequence of Beta-glucuronidase (P05804 whole entry): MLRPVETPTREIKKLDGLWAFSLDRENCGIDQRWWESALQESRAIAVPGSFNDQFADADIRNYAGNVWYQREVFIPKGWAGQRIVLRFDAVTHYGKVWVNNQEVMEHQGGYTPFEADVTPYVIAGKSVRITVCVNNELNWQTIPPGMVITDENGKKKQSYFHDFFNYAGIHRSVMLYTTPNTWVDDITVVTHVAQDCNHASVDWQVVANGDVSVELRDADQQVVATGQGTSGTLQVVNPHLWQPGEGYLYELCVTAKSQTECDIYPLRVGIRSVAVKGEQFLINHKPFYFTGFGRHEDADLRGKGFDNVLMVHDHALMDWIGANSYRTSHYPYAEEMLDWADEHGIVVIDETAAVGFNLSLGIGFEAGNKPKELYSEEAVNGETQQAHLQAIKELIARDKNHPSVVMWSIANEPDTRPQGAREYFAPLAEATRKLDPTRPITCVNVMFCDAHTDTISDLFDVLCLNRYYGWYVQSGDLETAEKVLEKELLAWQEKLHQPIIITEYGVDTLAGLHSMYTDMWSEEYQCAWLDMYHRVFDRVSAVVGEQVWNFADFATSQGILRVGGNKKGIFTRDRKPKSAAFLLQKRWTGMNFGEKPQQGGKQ

For COc1cccc(NC(=O)N(CCO)Cc2cc3cc(C)cc(C)c3[nH]c2=O)c1 [US12017994, Ref #36'], the IC50 was 3.71 µM.

For Cc1cc(C)c2[nH]c(=O)c(CN(CCO)C(=O)Nc3ccc(F)cc3C#C[Si](C)(C)C)cc2c1 [US12017994, Ref #44'], the IC50 was 19.1 µM.
